The source made the active and inactive calls. The rule behind the calls is not given here.
Tests used:
[1] = test system: RAW264.7; assay: Inhibition of LPS-induced NO production in mouse RAW264.7 cells at 0.3 to 3 microg/ml incubated for 24 hrs by griess reagent based microplate reader analysis; type: functional, cell-based; conditions: dose 0.3-3 µg/ml
[2] = test system: RAW264.7; assay: Cytotoxicity against mouse RAW264.7 cells assessed as reduction in cell viability at 3 microg/ml incubated for 24 hrs by MTT assay; type: toxicity, cell-based; conditions: raw264.7, 24 h, dose 3 µg/ml
[3] = test system: RAW264.7; assay: Cytotoxicity against mouse RAW264.7 cells assessed as reduction in cell viability at 10 microg/ml incubated for 4 hrs by MTT assay; type: toxicity, cell-based; conditions: raw264.7, 4 h, dose 10 µg/ml
[4] = test system: RAW264.7; assay: Inhibition of LPS-induced ROS production in mouse RAW264.7 cells at 3 to 10 microg/ml preincubated for 1 hr followed by LPS stimulation and measured after 24 hrs by DCFH-DA staining based fluorescence analysis; type: functional, cell-based; conditions: dose 3-10 µg/ml, time 25.0 hrs
[5] = test system: RAW264.7; assay: Antiinflammatory activity in LPS-stimulated mouse RAW264.7 cells assessed as inhibition of IL-1beta level incubated for 24 hrs by RT-PCR analysis; type: functional, cell-based
[6] = test system: RAW264.7; assay: Antiinflammatory activity in LPS-stimulated mouse RAW264.7 cells assessed as inhibition of IL-6 level incubated for 24 hrs by RT-PCR analysis; type: functional, cell-based
[7] = test system: RAW264.7; assay: Antiinflammatory activity in mouse RAW264.7 cells assessed as inhibition of LPS-induced NFkB p65 activation at 3 to 10 microg/ml for 2 hrs followed by LPS stimulation for 2 hrs; type: functional, cell-based; conditions: dose 3-10 µg/ml, time 4.0 hrs

| Structure (SMILES) | inhibition [1] | Activity [2] | Activity [3] | inhibition [4] | Activity [5] | Activity [6] | Activity [7] |
| --- | --- | --- | --- | --- | --- | --- | --- |
| C/C=C(\C)[C@H]1C(C)=C[C@@]2(C)C[C@@H](C)CC[C@@H]2[C@H]1C(=O)C1=C(SC)[C@](O)(CC(C)C)NC1=O | Active | Non-Toxic | – | – | – | – | – |
| C/C=C(\C)[C@H]1C(C)=C[C@@]2(C)C[C@@H](C)CC[C@@H]2[C@H]1C(=O)C1=C(SC)[C@@](O)(CC(C)C)NC1=O | Active | Non-Toxic | Non-Toxic | Active | Active | Active | Active |

— ChEMBL document CHEMBL5226389, “Isolation of the Anti-Inflammatory Agent Myceliostatin from a Methionine-Enriched Culture of Myceliophthora thermophila ATCC 42464” (J Nat Prod, 2023)
